pIC50: −log10 of the molar value.
Experiments:
IL-17A : IL-17RA binding = target: T1, IL-17A : IL-17RA binding (Homo sapiens, UniProt Q16552, K93Q); assay: IL-17A(FLAG-tagged):IL-17RA(His-tagged) binding disruption Eu-HTRF assay, Protocol 1; conditions: FLAG-IL-17A 2.5 nM at 2x final concentration; average if tested more than once
T1 construct: Name: IL-17A-Flag
Outline: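 IC50 came from a one-site competition fit of the acceptor/donor (665/620 nm) HTRF ratio. His-tagged IL-17RA, Eu-anti-FLAG and D2-anti-His were added after a 1 h rt compound preincubation with FLAG-tagged IL-17A dimer in PBS/0.01% Triton X-100, followed by 2 h at rt before reading.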

[1] = tested on: IL-17A-induced G-CSF production in human normal keratinocyte (NHK); assay: NHK assay: IL-17A-induced G-CSF production in normal human keratinocytes; assay type: cell-based; conditions: 24 h, IL-17A 5 ng/mL, average if tested more than once
Outline: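 Stimulus rhIL-17A 5 ng/mL final, premixed 1 h rt with compound; adult NHK, 5% FBS, 0.2% DMSO. Viability by CellTiter-Glo vs DMSO.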

T1 sequence (Q16552 with tags, fused parts or gaps K93Q): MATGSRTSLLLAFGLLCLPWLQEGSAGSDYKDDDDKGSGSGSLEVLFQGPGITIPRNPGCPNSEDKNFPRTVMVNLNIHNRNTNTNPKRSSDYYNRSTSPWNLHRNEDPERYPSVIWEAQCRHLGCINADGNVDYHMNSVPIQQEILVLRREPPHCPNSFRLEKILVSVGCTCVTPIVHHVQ

| Structure (SMILES) | pIC50 (IL-17A : IL-17RA binding) | pIC50 ([1]; Homo sapiens, Keratinocyte) | pIC50 [1] |
| --- | --- | --- | --- |
| C[C@@H](NC(=O)CCC(F)(F)F)c1ccc2[nH]c([C@@H](NC(=O)[C@H]3C[C@@H]3C(F)(F)F)C3CCC(F)(F)CC3)nc2c1 (relative stereo) [Example 105, trans-(1S*,2S*)—N—((S)-(4,4-Difluorocyclohexyl)(5-((R)-1-(4,4,4-trifluorobutanamido)ethyl)-1H-benzo[d]imidazol-2-yl)methyl)-2-(trifluoromethyl)cyclopropane-1-carboxamide] | < 7.00 | < 7.00 |  |
| CC(C)C(NC(=O)CCC(F)(F)F)c1ccc2[nH]c([C@@H](NC(=O)c3ccnn3C)C3CCC(F)(F)CC3)nc2c1 (single isomer, unassigned) [Example 44, N—((S)-(4,4-Difluorocyclohexyl)(5-((S*)-2-methyl-1-(4,4,4-trifluorobutanamido)propyl)-1H-benzo[d]imidazol-2-yl)methyl)-1-methyl-1H-pyrazole-5-carboxamide] | < 7.00 | < 7.00 |  |
| C[C@@H](NC(=O)CCC(F)(F)F)c1ccc2[nH]c([C@@H](NC(=O)c3ncn(C)n3)C3CCC(F)(F)CC3)nc2c1 [Example 32, N—[(S)-(4,4-Difluorocyclohexyl)-[6-[(1R)-1-(4,4,4-trifluorobutanoylamino)ethyl]-1H-benzimidazol-2-yl]methyl]-1-methyl-1,2,4-triazole-3-carboxamide] | < 7.00 | < 7.00 |  |
| C[C@@H](NC(=O)CCC(F)(F)F)c1ccc2[nH]c([C@@H](NC(=O)c3c(C#N)cnn3CC3CCC3)C3CCC(F)(F)CC3)nc2c1 [Example 90, 4-Cyano-1-(cyclobutylmethyl)-N—((S)-(4,4-difluorocyclohexyl)(5-((R)-1-(4,4,4-trifluorobutanamido)ethyl)-1H-benzo[d]imidazol-2-yl)methyl)-1H-pyrazole-5-carboxamide] | < 7.00 | < 7.00 |  |
| C[C@@H](NC(=O)CCC(F)(F)F)c1ccc2nc([C@@H](NC(=O)c3cnn(C)c3C(F)(F)F)C3CCC(F)(F)CC3)[nH]c2c1 [Example 58, N—((S)-(4,4-Difluorocyclohexyl)(6-((R)-1-(4,4,4-trifluorobutanamido)ethyl)-1H-benzo[d]imidazol-2-yl)methyl)-1-methyl-5-(trifluoromethyl)-1H-pyrazole-4-carboxamide] | < 7.00 | < 7.00 |  |
| C[C@@H](NC(=O)CCC(F)(F)F)c1ccc2[nH]c([C@@H](NC(=O)[C@@H]3C[C@H]3F)C3CCC(F)(F)CC3)nc2c1 [Example 100, (1S,2R)—N—((S)-(4,4-Difluorocyclohexyl)(5-((R)-1-(4,4,4-trifluorobutanamido)ethyl)-1H-benzo[d]imidazol-2-yl)methyl)-2-fluorocyclopropane-1-carboxamide] | < 7.00 | < 7.00 |  |
| CC(C)n1nccc1C(=O)N[C@@H](CO[C@@H](C)C(F)(F)F)c1nc2ccc([C@H](NC(=O)CC3CC(F)(F)C3)C3CC3)cc2[nH]1 (relative stereo) [Example 158, N—((R*)-1-(6-((R)-Cyclopropyl(2-(3,3-difluorocyclobutyl)acetamido)methyl)-1H-benzo[d]imidazol-2-yl)-2-(((S)-1,1,1-trifluoropropan-2-yl)oxy)ethyl)-1-isopropyl-1H-pyrazole-5-carboxamide] | > 7.30 | < 7.00 |  |
| C[C@@H](NC(=O)CCC(F)(F)F)c1ccc2[nH]c([C@@H](NC(=O)c3cnn(CCOC(F)F)n3)C3CCC(F)(F)CC3)nc2c1 [Example 33, N—[(S)-(4,4-Difluorocyclohexyl)-[6-[(1R)-1-(4,4,4-trifluorobutanoylamino)ethyl]-1H-benzimidazol-2-yl]methyl]-2-[2-(difluoromethoxy)ethyl]triazole-4-carboxamide] | < 7.00 | < 7.00 |  |
| CC(C)n1nccc1C(=O)N[C@@H](COC1CC(F)(F)C1)c1nc2ccc([C@H](NC(=O)CC3CC(F)(F)C3)C3CC3)cc2[nH]1 [Example 257, N—((R)-1-(6-((R)-Cyclopropyl(2-(3,3-difluorocyclobutyl)acetamido)methyl)-1H-benzo[d]imidazol-2-yl)-2-(3,3-difluorocyclobutoxy)ethyl)-1-isopropyl-1H-pyrazole-5-carboxamide] | < 7.00 | < 7.00 |  |
| C[C@@H](NC(=O)CCC(F)(F)F)c1ccc2nc([C@@H](NC(=O)c3cc(F)ccc3F)C3CCC(F)(F)CC3)[nH]c2c1 [Example 123, N—((S)-(4,4-Difluorocyclohexyl)(6-((R)-1-(4,4,4-trifluorobutanamido)ethyl)-1H-benzo[d]imidazol-2-yl)methyl)-2,5-difluorobenzamide] | < 7.00 | < 7.00 |  |
| C[C@@H](NC(=O)CCC(F)(F)F)c1ccc2[nH]c([C@@H](NC(=O)c3cnnn3CCC(F)(F)F)C3CCC(F)(F)CC3)nc2c1 [Example 4, N—[(S)-(4,4-Difluorocyclohexyl)-[6-[(1R)-1-(4,4,4-trifluorobutanoylamino)ethyl]-1H-benzimidazol-2-yl]methyl]-3-(3,3,3-trifluoropropyl)triazole-4-carboxamide] | < 7.00 | 7.00 to 7.30 |  |

More lines, main results first:

| pIC50 (IL-17A : IL-17RA binding) | Structure (SMILES) | pIC50 ([1]; Homo sapiens, Keratinocyte) | pIC50 [1] |
| --- | --- | --- | --- |
| 7.00 to 7.30 | Cc1nonc1C(=O)N[C@@H](CC(C)(C)C(F)(F)F)c1nc2ccc([C@H](NC(=O)CC3CC3(F)F)C3CC3)cc2[nH]1 (single isomer, unassigned) [Example 184, N—((S)-1-(6-((R)-Cyclopropyl(2-((S*)-2,2-difluorocyclopropyl)acetamido)methyl)-1H-benzo[d]imidazol-2-yl)-4,4,4-trifluoro-3,3-dimethylbutyl)-4-methyl-1,2,5-oxadiazole-3-carboxamide] |  | < 7.00 |
| < 7.00 | C[C@@H](NC(=O)CCC(F)(F)F)c1ccc2[nH]c(C(CC(C)(C)C(F)(F)F)NC(=O)c3cnn(CCC(F)(F)F)n3)nc2c1 (single isomer, unassigned) [Example 219, N—((S*)-4,4,4-Trifluoro-3,3-dimethyl-1-(5-((R)-1-(4,4,4-trifluorobutanamido)ethyl)-1H-benzo[d]imidazol-2-yl)butyl)-2-(3,3,3-trifluoropropyl)-2H-1,2,3-triazole-4-carboxamide] | < 7.00 |  |
| > 7.30 | CC(CC(=O)N[C@@H](c1ccc2nc([C@H](CC(C)(C)C(F)(F)F)NC(=O)c3nonc3C3CC3)[nH]c2c1)C1CC1)C(F)(F)F (single isomer, unassigned) [Example 182, 4-Cyclopropyl-N—((S)-1-(6-((R)-cyclopropyl((S*)-4,4,4-trifluoro-3-methylbutanamido)methyl)-1H-benzo[d]imidazol-2-yl)-4,4,4-trifluoro-3,3-dimethylbutyl)-1,2,5-oxadiazole-3-carboxamide] |  | > 7.30 |
| < 7.00 | C[C@@H](NC(=O)CCC(F)(F)F)c1ccc2[nH]c([C@@H](NC(=O)c3cnc(CCC(F)(F)F)s3)C3CCC(F)(F)CC3)nc2c1 [Example 222, N—((S)-(4,4-Difluorocyclohexyl)(5-((R)-1-(4,4,4-trifluorobutanamido)ethyl)-1H-benzo[d]imidazol-2-yl)methyl)-2-(3,3,3-trifluoropropyl)thiazole-5-carboxamide] | < 7.00 |  |
| 7.00 to 7.30 | CC(C)c1snnc1C(=O)N[C@H](c1nc2cc([C@@H](C)NC(=O)CCC(F)(F)F)ccc2[nH]1)C1CCC(F)(F)CC1 [Example 206, N—((S)-(4,4-Difluorocyclohexyl)(5-((R)-1-(4,4,4-trifluorobutanamido)ethyl)-1H-benzo[d]imidazol-2-yl)methyl)-5-isopropyl-1,2,3-thiadiazole-4-carboxamide] | > 7.30 |  |
| < 7.00 | CC(C)n1nccc1C(=O)N[C@H](c1nc2ccc([C@H](NC(=O)CC3CC(F)(F)C3)C3CC3)cc2[nH]1)C1CCC(F)(F)CO1 (single isomer, unassigned) [Example 261, N—((R)-(6-((R)-Cyclopropyl(2-(3,3-difluorocyclobutyl)acetamido)methyl)-1H-benzo[d]imidazol-2-yl)((S*)-5,5-difluorotetrahydro-2H-pyran-2-yl)methyl)-1-isopropyl-1H-pyrazole-5-carboxamide] | 7.00 to 7.30 |  |
| > 7.30 | CC(CC(=O)N[C@@H](c1ccc2[nH]c([C@H](COC(C)(C)C(F)(F)F)NC(=O)c3nonc3C3CC3)nc2c1)C1CC1)C(F)F (single isomer, unassigned) [Example 176, 4-Cyclopropyl-N—((R)-1-(5-((R)-cyclopropyl((S*)-4,4-difluoro-3-methylbutanamido)methyl)-1H-benzo[d]imidazol-2-yl)-2-((1,1,1-trifluoro-2-methylpropan-2-yl)oxy)ethyl)-1,2,5-oxadiazole-3-carboxamide] |  | < 7.00 |
| < 7.00 | Cc1c(C(=O)NC(CC(C)(C)C(F)(F)F)c2nc3cc([C@@H](C)NC(=O)CCC(F)(F)F)ccc3[nH]2)cnn1CC(F)(F)F (stereo in doubt) [Example 223, 5-Methyl-N—((S*)-4,4,4-trifluoro-3,3-dimethyl-1-(5-((R)-1-(4,4,4-trifluorobutanamido)ethyl)-1H-benzo[d]imidazol-2-yl)butyl)-1-(2,2,2-trifluoroethyl)-1H-pyrazole-4-carboxamide] | < 7.00 |  |
| < 7.00 | C[C@@H](NC(=O)CCC(F)(F)F)c1ccc2[nH]c(C(CC(C)(C)C(F)(F)F)NC(=O)c3cnn(CC4CC4)n3)nc2c1 (single isomer, unassigned) [Example 218, 2-(Cyclopropylmethyl)-N—((S*)-4,4,4-trifluoro-3,3-dimethyl-1-(5-((R)-1-(4,4,4-trifluorobutanamido)ethyl)-1H-benzo[d]imidazol-2-yl)butyl)-2H-1,2,3-triazole-4-carboxamide] |  | < 7.00 |

Source: patent US20240376085A1 (Janssen Pharmaceutica NV, priority 2021, published 2024)
